Where no end group is shown, it is not given here. [ ]: non-standard residue; d: D form. The star is where a group is joined. Biotin = O=C1N[C@H]2[C@H](CS[C@H]2CCCCC(=O)*)N1; pY = N[C@@H](Cc1ccc(OP(=O)(O)O)cc1)C(=O)O
T1: GST-SHIP.SH2 fusion protein (murine, UniProt Q9ES52 8-104)
T1 construct: also called SH2 domain of SHIP; not shown: Glutathione S-transferase (GST) fusion partner
T1 sequence (looked up): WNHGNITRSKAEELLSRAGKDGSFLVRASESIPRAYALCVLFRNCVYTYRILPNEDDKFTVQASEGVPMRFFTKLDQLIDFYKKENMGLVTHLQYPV

T2: SHIP polyinositol phosphatase from RBL-2H3 cell lysates (rat (cell line RBL-2H3), UniProt P97573 1-1190, limits assumed)
T2 construct: Detected by immunoblot with anti-SHIP antiserum
T2 sequence (looked up): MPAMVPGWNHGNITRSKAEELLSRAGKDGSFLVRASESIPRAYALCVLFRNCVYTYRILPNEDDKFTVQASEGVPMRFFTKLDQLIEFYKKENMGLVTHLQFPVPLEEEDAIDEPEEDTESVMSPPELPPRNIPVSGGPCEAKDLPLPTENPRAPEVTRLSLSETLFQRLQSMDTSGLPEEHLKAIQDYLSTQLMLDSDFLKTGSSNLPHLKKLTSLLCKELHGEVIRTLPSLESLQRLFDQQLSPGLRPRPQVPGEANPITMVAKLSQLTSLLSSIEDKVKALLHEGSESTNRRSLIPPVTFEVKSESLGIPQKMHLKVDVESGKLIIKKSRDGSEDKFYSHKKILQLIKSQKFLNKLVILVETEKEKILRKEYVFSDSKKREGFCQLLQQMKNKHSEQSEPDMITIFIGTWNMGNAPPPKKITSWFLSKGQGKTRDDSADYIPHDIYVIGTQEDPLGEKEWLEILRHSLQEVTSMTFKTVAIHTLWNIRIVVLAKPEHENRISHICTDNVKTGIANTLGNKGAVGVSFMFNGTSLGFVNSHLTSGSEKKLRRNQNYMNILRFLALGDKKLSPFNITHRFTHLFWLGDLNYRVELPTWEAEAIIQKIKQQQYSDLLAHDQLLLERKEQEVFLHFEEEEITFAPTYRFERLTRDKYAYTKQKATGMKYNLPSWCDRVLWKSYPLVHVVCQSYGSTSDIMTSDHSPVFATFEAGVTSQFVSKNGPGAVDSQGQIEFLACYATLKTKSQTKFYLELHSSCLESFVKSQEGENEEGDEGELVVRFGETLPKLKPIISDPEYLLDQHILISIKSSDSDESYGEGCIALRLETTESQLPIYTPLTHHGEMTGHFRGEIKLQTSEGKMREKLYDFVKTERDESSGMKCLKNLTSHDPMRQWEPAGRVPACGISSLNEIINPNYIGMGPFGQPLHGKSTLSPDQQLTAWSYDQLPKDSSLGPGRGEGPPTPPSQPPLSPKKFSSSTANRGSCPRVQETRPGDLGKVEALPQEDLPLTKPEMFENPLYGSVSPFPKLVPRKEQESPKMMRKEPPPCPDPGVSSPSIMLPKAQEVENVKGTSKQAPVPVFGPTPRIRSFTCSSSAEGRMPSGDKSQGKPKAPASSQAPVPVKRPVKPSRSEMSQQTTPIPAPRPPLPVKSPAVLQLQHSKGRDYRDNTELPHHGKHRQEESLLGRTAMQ

B1: phosphorylated NKG2A N-term peptide (N-terminal ITIM) (peptide)
peptide: Biotin-MDNQGVI[pY]SDLNL
notes: also called NKG2-A N-terminal ITIM; NKG2A/B phosphorylated ITIM peptide

What was measured:
[1] = system: melanoma-specific CTL clones; test: Auto-presentation assay, TNF release; type: cell-based, human; conditions: clone M117-14, TYR peptide 10 μM, mAb without cross-linking
Experimental: (§1) 5×10^4 CTLs were incubated with indicated concentrations of peptides in 100 μl final volume. After two hours, supernatants were harvested to test the TNF secretion and lysis was estimated by flow cytometry on the basis of size/granularity patterns as previously described. TNF determinations were performed by a biologic assay using cytotoxicity on the sensitive WEHI 164 clone 13 cells, as compared to a standard curve established using rTNF-β (Genzyme).
Results are illustrated by FIG. 13 showing that CD94-NKG2A inhibits the antigen-specific TNF production by CTL clones. In FIG. 13, the melanoma specific CTL clones M117-14 and 7-10 were stimulated in an auto-presentation assay with their respective cognate peptides (i.e.:EAA for 7-10 and M77-84, and TYR for M117-14) at a concentration of 10 μM, in the presence or indicated mAbs. TNF release was assessed in the supernatant by a biological assay using the WEHI 164, a TNF sensitive cell line. Data from one representative experiment out of five, are expressed as mean TNF (pg/ml)±SD of triplicate samples.

[2] = system: melanoma-specific CTL clones; test: Auto-presentation assay, CTL lysis; type: cell-based, human; conditions: clone M117-14, TYR peptide, 2 hours
Experimental: as §1
Results are illustrated by FIG. 14 showing the negative regulation of antigen-induced CTL clone cytotoxicity by CD94-NKG2A. In FIG. 14, cells from the melanoma specific CTL clone M117-14 were stimulated in an auto-presentation assay with the indicated concentrations of cognate peptide (TYR). Cytotoxicity was measured, in the presence or absence of anti-CD94 mAb (HB-3B1). Cell lysis was estimated by flow cytometry on the basis of size/granularity patterns after auto-presentation in a short term assay (2 hours). Data shown are representative from 5 independent experiments.

[3] = molecular target: T1, GST-SHIP.SH2 fusion protein; test: SPR (BIAcore), phosphopeptide (25 RU) on streptavidin chip, FIG. 16
Experimental: Surface plasmon resonance measurements were performed on a BIAcore apparatus (BIAcore). The GST-SHP1.SH2(NC), GST-SHP2.SH2(NC) and GST-SHIP.SH2 fusion proteins generated from the murine phosphatase cDNAs, were purified from DH5α lysates as previously described. Before their use in BIAcore experiments, fusion proteins were dialyzed in HBS buffer pH 7.4 (10 mM HEPES, 150 mM NaCl, 3.4 mM EDTA). Protein purity was assessed by 12.5% SDS-PAGE, and Coomassie blue staining. The running buffer used in all BIAcore experiments consisted of HBS buffer supplemented with 0.05% surfactant P20. Equilibrium constant determination (koff and kₒₙ) was performed using BIAevaluation 2.0 software. The equilibrium dissociation constants KD were calculated from the koff/kₒₙ ratio.
The measurement of phosphorylated peptide binding to GST-SHP-1.SH2(N+C) and GST-SHP-2.SH2(N+C) fusion proteins was performed at a constant 5 μl/min flow rate. […] Results are expressed as corrected resonance units (CRU) corresponding to the raw RU values after subtraction of background RU value due to the injection medium, koff and kₒₙ were calculated from three independent measurements using the BIAevaluation 2.0 software. In addition, kₒₙ was calculated as the slope of the curve kg=kₒₙ×c−koff, where koff is the off-rate constant and c is the concentration of the soluble recombinant GST fusion proteins. […]

[4] = molecular target: T2, SHIP polyinositol phosphatase from …; test: cell lysate adsorption to peptide beads, immunoblot (RBL-2H3), FIG. 15A
Experimental: In an attempt to characterize the function of these putative ITIMs, cell lysates were incubated with phosphorylated and nonphosphorylated synthetic peptides corresponding to the N-terminal and the C-terminal I/VxYxxL stretches present in NKG2A intracytoplasmic domain. Cell lysates absorbed to peptides were then assayed by immunoblotting for the presence of the phosphatases known to interact with phosphorylated ITIMs, i.e. the protein tyrosine phosphatases SHP-1 and SHP-2, as well as the polyinositol phosphate phosphatase, SHIP. In parallel, lysates adsorption were performed using control peptides corresponding to ITIMs present in Ig-like ITIM bearing receptors such as human KIRs (p58.2/CD158b, a receptor for HLA-Cw3) and mouse FcγRIIB, as well as in mouse lectin-like ITIM-bearing receptor, such as Ly-49A.
As shown in FIG. 15A (lanes 1 and 2), both N- and C-terminal I/VxYxxL stretches present in NKG2A associate with SHP-1 and SHP-2 in vitro, but no binding to SHIP was detected. Similar patterns of association were obtained using the phosphorylated ITIM peptides of […] and p58.2 KIR (FIG. 15A, lanes 3 to 5). In contrast, FcγRIIB phosphorylated ITIM peptides also associate with SHIP (FIG. 15A, lane 6). No association of phosphatases with nonphosphorylated peptides corresponding to FcγRIIB (FIG. 15A, lane 7) and NKG2A N- and C-terminal I/VxYxxL stretches was detected. When nonphosphorylated and phosphorylated peptides were used to adsorb lysates prepared from ³⁵S methionine/cysteine-labeled cells, only two bands around 64 and 68 kDa selectively associate with both phosphorylated NKG2A N- and C-terminal I/VxYxxL stretches, as compared to nonphosphorylated ones (FIG. 15B). The 64 and 68 kDa proteins which bind to phosphorylated NKG2A peptides correspond to SHP-1 and SHP-2 apparent molecular weight respectively, supporting the immunoblotting results. Therefore, our results define the two NKG2A I/VxYxxL stretches as ITIMs which appear to function similarly to other ITIMs present in inhibitory receptors for MHC class I molecules, i.e. KIRs and Ly-49 molecules. Using recombinant soluble tandem SH2 domains of SHP-1 and SHP-2, we confirmed by surface plasmon resonance that both NKG2A ITIM phosphopeptides directly associate with the SH2 domains of SHP-1 and SHP-2, but not with the SH2 domain of SHIP (FIG. 16).

Molecule | TNF production [1] | CTL lysis (auto-toxicity) [2] | binding result [3] | binding result [4]
Y1MDGTMSQV9 [TYR] | released TNF | lysed in a dose-dependent manner | – | –
B1 | – | – | no binding (tested: 100 nM) | no binding

From US20040038894A1, “Compounds for modulating cell negative regulations and biological applications thereof” (INSTITUT NATIONAL DE LA SANTE ET DE LA RECHERCHE MEDICALE …, priority 1996, published 2004)
